Source: patent US20100314319A1, “HALOGENATED AMIDES AS BIOCIDES FOR BIOFILM CONTROL” (priority 2009, published 2010)
Like-named read-outs stand apart in the source and are kept apart here.

What was measured:
[1] = tested on: Biofilms of P. aeruginosa ATCC 10145; assay: Efficacy against biofilm associated bacteria (Calgary biofilm device, viable sessile bacteria); assay type: cell-based; conditions: pH 8.5, 37° C.
Procedure: Biofilms of P. aeruginosa ATCC 10145 are grown in Calgary biofilm devices (Innovotech, Alberta, Canada) for 42 hours. Trypticase Soy Broth (TSB) is used in the biofilm devices as the culture medium. After the incubation period, loosely associated cells are removed from the biofilms that develop on the surfaces of the submerged pegs by rinsing with sterile 0.85% NaCl. The biofilms are than treated with DBMAL (inventive biocide), glutaraldehyde (comparative biocide), or DBNPA (comparative biocide). A dilute salts solution is used as the test medium for the efficacy studies. The salts solution contains (in grams per liter of deionized water) CaCl2, 0.2203 g; MgSO4, 0.1847 g; and NaHCO3, 0.2033 g. The final pH of the solution is adjusted to 8.5.
The concentrations of each active tested are 100 ppm, 50 ppm, 25 ppm, 12.5 ppm in the salts solution and the contact times are for 4 hours, 24 hours and 48 hours, respectively. In all cases, the incubation temperature is 37° C. Sterile deionized water is used as a non-biocide treated control. After each contact time, the pegs are washed with sterile 0.85% NaCl and the bacteria are released from the biofilm on the surface of each peg into sterile 0.85% NaCl by sonication (see Ceri et al., Journal of Clinical Microbiology 1999, 37: 1771-1776). The viable bacteria are then enumerated in TSB, using a serial dilution method.

[2] = tested on: Biofilms of P. aeruginosa ATCC 10145; assay: Biofilm removal evaluation (crystal violet, OD 580 nm); assay type: cell-based; conditions: 25, 50, 100 ppm, 4 hr and 24 hr, 37° C.
Procedure: The Calgary biofilm device is used to prepare biofilms of P. aeruginosa ATCC 10145. TSB is used as the culture medium and biofilms are allowed to develop over a period of 42 hours. […] Concentrations of the actives tested are 25 ppm, 50 ppm, 100 ppm in sterile diluted salts solution as the test medium. The treatment is conducted at 37° C. for 4 hr and 24 hr, respectively. Sterile deionized water is used as an untreated control. After treatment, the pegs are washed with sterile 0.85% NaCl and then the biomass/biofilm on each peg is measured (see Stepanovic et al., Journal of Microbiological Methods, 2000, 40, 175-179). First the biofilm is fixed with 99% methanol and, after air drying, the pegs are stained with 2% (w/v) crystal violet and washed with tap water. The pegs are then air dried and the crystal violet bound to the biofilm is extracted with 33% glacial acetic acid. The optical density (OD) of the extracted solution is measured at 580 nm. The results are depicted in FIG. 2.

[3] = tested on: amoeba fed Legionella pneumophila (AfLp); assay type: cell-based; conditions: for Active concentration required for complete kill (6 log reduction): Amoeba fed Legionella
[4] = buffer
[5] = Stability against hydrolysis (HPLC level remaining in buffered dilute solutions)
Free Legionella = assay type: cell-based, Legionella pneumophila

## NC(=O)C(Br)(Br)C(N)=O [DBMAL, 2,2-Dibromomalonamide]
[1]; 12.5-100 ppm, 4, 24 and 48 hours, in general
  effectiveness against sessile bacteria (reduction of viable sessile bacteria): more effective than DBNPA
[1]; 25 ppm active concentration, efficacy increases with contact time
  effectiveness against sessile bacteria (reduction of viable sessile bacteria): very effective
[2]
  biofilm removal: overall better biofilm removal than DBNPA
[3]; corresponding time points (2 and 24 hours)
  level needed for 6 log kill of AfLp relative to that needed for free cells: about twice
[4]; 0 h, pH 6.9
  level remaining (HPLC): 3746
[4]; 0 h, pH 8
  level remaining (HPLC): 3866
[4]; 0 h, pH 9
  level remaining (HPLC): 4576
[4]; 2 h, pH 6.9
  level remaining (HPLC): 4612
[4]; 2 h, pH 8
  level remaining (HPLC): 4031
[4]; 2 h, pH 9
  level remaining (HPLC): 4022
[4]; 24 h, pH 6.9
  level remaining (HPLC): 3857
[4]; 24 h, pH 8
  level remaining (HPLC): 4191
[4]; 24 h, pH 9
  level remaining (HPLC): 3891
[4]; 48 h, pH 6.9
  level remaining (HPLC): 3935
[4]; 48 h, pH 8
  level remaining (HPLC): 4187
[4]; 48 h, pH 9
  level remaining (HPLC): 3603
[4]; 72 h, pH 6.9
  level remaining (HPLC): 3966
[4]; 72 h, pH 8
  level remaining (HPLC): 4290
[4]; 72 h, pH 9
  level remaining (HPLC): 4018
[4]; 96 h, pH 6.9
  level remaining (HPLC): 4212
[4]; 96 h, pH 8
  level remaining (HPLC): 3883
[4]; 96 h, pH 9
  level remaining (HPLC): 3456
[5]; pH 6.9, T = 30 C., 48 hours
  Calculated Percent Reduction of the Active Ingredient: 0%
[5]; pH 6.9, T = 30 C., 72 hours
  Calculated Percent Reduction of the Active Ingredient: 0%
[5]; pH 8, T = −1 C., 48 hours
  Calculated Percent Reduction of the Active Ingredient: 0%
[5]; pH 8, T = −1 C., 72 hours
  Calculated Percent Reduction of the Active Ingredient: 0%
[5]; pH 8, T = −1 C., 96 hours
  Calculated Percent Reduction of the Active Ingredient: 0%
[5]; pH 9, T = −1 C., 48 hours
  Calculated Percent Reduction of the Active Ingredient: 21%
[5]; pH 9, T = −1 C., 72 hours
  Calculated Percent Reduction of the Active Ingredient: 12%
[5]; pH 9, T = −1 C., 96 hours
  Calculated Percent Reduction of the Active Ingredient: 24%

## N#CC(Br)(Br)C(N)=O [DBNPA, 2,2-Dibromo-3-nitrilopropionamide]
[5]; pH 6.9, T = 30 C., 0 hours
  level remaining (HPLC): 3991
[5]; pH 6.9, T = 30 C., 2 hours
  level remaining (HPLC): 4155
[5]; pH 6.9, T = 30 C., 24 hours
  level remaining (HPLC): 2557
[5]; pH 6.9, T = 30 C., 48 hours
  level remaining (HPLC): 1361
[5]; pH 6.9, T = 30 C., 72 hours
  level remaining (HPLC): 918
[5]; pH 6.9, T = 30 C., 96 hours
  level remaining (HPLC): 658
[5]; pH 8, T = −1 C., 0 hours
  level remaining (HPLC): 4068
[5]; pH 8, T = −1 C., 2 hours
  level remaining (HPLC): 3998
[5]; pH 8, T = −1 C., 24 hours
  level remaining (HPLC): 3506
[5]; pH 8, T = −1 C., 48 hours
  level remaining (HPLC): 3578
[5]; pH 8, T = −1 C., 72 hours
  level remaining (HPLC): 3149
[5]; pH 8, T = −1 C., 96 hours
  level remaining (HPLC): 3070
[5]; pH 9, T = −1 C., 0 hours
  level remaining (HPLC): 3842
[5]; pH 9, T = −1 C., 2 hours
  level remaining (HPLC): 2818
[5]; pH 9, T = −1 C., 24 hours
  level remaining (HPLC): 1256
[5]; pH 9, T = −1 C., 48 hours
  level remaining (HPLC): 659
[5]; pH 9, T = −1 C., 72 hours
  level remaining (HPLC): 363
[5]; pH 9, T = −1 C., 96 hours
  level remaining (HPLC): 239

## CCCCCCCCCC[N+](C)(C)CCCCCCCCCC.[Cl-] [DDAC, didecyl dimethyl ammonium chloride]
Free Legionella; 2 hours exposure
  Active concentration required for complete kill (6 log reduction): 20 ppm
Free Legionella; 24 hours exposure
  Active concentration required for complete kill (6 log reduction): 15 ppm
[3]; 2 hours exposure
  Active concentration required for complete kill (6 log reduction): 60 ppm
[3]; 24 hours exposure
  Active concentration required for complete kill (6 log reduction): 40 ppm

## O=CCCCC=O [Glutaraldehyde]
[1]; 50 ppm active concentration, 48 h treatment
  effectiveness against sessile bacteria (reduction of viable sessile bacteria): low effectiveness
Free Legionella; 2 hours exposure
  Active concentration required for complete kill (6 log reduction): 10 ppm
Free Legionella; 24 hours exposure
  Active concentration required for complete kill (6 log reduction): 5 ppm
[3]; 2 hours exposure
  Active concentration required for complete kill (6 log reduction): 20 ppm
[3]; 24 hours exposure
  Active concentration required for complete kill (6 log reduction): 15 ppm
